In US20040077881A1, “$G(d)1-pyrrolines used in pest control” (priority 2001, published 2004):

Test system: not listed separately
Assay: logP determination by HPLC (EEC directive 79/831 Annex V.A8, reversed-phase C 18)
Format: physicochemical
Settings: first HPLC peak of the mixture of diastereomers; reversed-phase C 18, 43° C., pH 2.3
Experimental: The stated logP values were determined in accordance with EEC directive 79/831 Annex V.A8 by HPLC (High Performance Liquid Chromatography) using a reversed-phase column (C 18). Temperature: 43° C. In the acidic range, the determination was carried out at pH 2.3 using the mobile phases 0.1% aqueous phosphoric acid and acetonitrile; linear gradient from 10% acetonitrile to 90% acetonitrile.

log P1 | Compound
2.29 | O=S(=O)(O)C1CC(c2ccc(-c3ccc(OC(F)(F)F)cc3)cc2)N=C1c1c(F)cccc1F (stereo not drawn) [Example 13, 5-(2,6-difluorophenyl)-2-[4′-(trifluoromethoxy)-1,1′-biphenyl-4-yl]-3,4-dihydro-2H-pyrrole-4-sulphonic acid]

Same assay, conditions: reversed-phase HPLC column (C 18), pH 2.3, HPLC, reversed-phase column (C 18), 43° C., pH 2.3, 0.1% aqueous phosphoric acid/acetonitrile; read-out: log P

chromatographic logP | Compound
4.77 | CCOS(=O)(=O)C1CC(c2ccc(-c3ccc(OC(F)(F)F)cc3)cc2)N=C1c1c(F)cccc1F (stereo not drawn) [Example 15, ethyl 5-(2,6-difluorophenyl)-2-[4′-(trifluoromethoxy)-1,1′-biphenyl-4-yl]-3,4-dihydro-2H-pyrrole-4-sulphonate]
5.22 | O=S(=O)(Oc1ccc(-c2ccc([C@H]3C[C@H](Cl)C(c4c(F)cccc4F)=N3)cc2)cc1)C(F)(F)F [Example 7, 4′-[(2R)-4-chloro-5-(2,6-difluorophenyl)-3,4-dihydro-2-yl]-1,1′-biphenyl-4-yl trifluoromethanesulphonate]
6.43 | Fc1cccc(F)c1C1=N[C@@H](c2ccc(-c3ccc(OC(F)(F)F)cc3)cc2)CC1=Cc1ccc(Br)cc1 [Example 14, (2R)-4-(4-bromobenzylidene)-5-(2,6-difluorophenyl)-2-[4′-(trifluoromethoxy)-1,1′-biphenyl-4-yl]-3,4-dihydro-2H-pyrrole]
5.8 | CC(C)C=C1CC(c2ccc(-c3ccc(OC(F)(F)F)cc3)cc2)N=C1c1c(F)cccc1F (stereo not drawn) [Example 17, 4-(2-methylpropylidene)-5-(2,6-difluorophenyl)-2-[4′-(trifluoromethoxy)-1,1′-biphenyl-4-yl]-3,4-dihydro-2H-pyrrole]
4.97 | O=S(=O)(Oc1ccc([C@H]2CC(Br)(Br)C(c3c(F)cccc3F)=N2)cc1)C(F)(F)F [Example 9, 4-[(2R)-4,4-dibromo-5-(2,6-difluorophenyl)-3,4-dihydro-2H-pyrrol-2-yl]phenyl-trifluoromethanesulphonate]
6.45 | CC(C)(C)OC(=O)NC(CC(C)(C)C(=O)c1c(F)cccc1F)c1ccc(-c2ccc(OC(F)(F)F)cc2)cc1 (stereo not drawn) [tert-butyl 4-(2,6-difluorophenyl)-3,3-dimethyl-4-oxo-1-[4′-(trifluoromethoxy)-1,1′-biphenyl-4-yl]butylcarbamate]
4.88 | O=S(=O)(Oc1ccc([C@H]2CC(Cl)(Cl)C(c3c(F)cccc3F)=N2)cc1)C(F)(F)F [Example 5]
5.91 | Fc1cccc(F)c1C1=N[C@@H](c2ccc(-c3ccc(OC(F)(F)F)cc3)cc2)CC1(Cl)Cl [Example 6, (2R)-4,4-dichloro-5-(2,6-difluorophenyl)-2-[4′-(trifluoromethoxy)-1,1′-biphenyl-4-yl]-3,4-dihydro-2H-pyrrole]
6.01 | Fc1cccc(F)c1C1=N[C@@H](c2ccc(-c3ccc(OC(F)(F)F)cc3)cc2)CC1(Br)Br [Example 10, (2R)-4,4-dibromo-5-(2,6-difluorophenyl)-2-[4′-(trifluoromethoxy)-1,1′-biphenyl-4-yl]-3,4-dihydro-2H-pyrrole]
5.67 | CC1(C)CC(c2ccc(-c3ccc(OC(F)(F)F)cc3)cc2)N=C1c1c(F)cccc1F (stereo not drawn) [Example 11, 4,4-dimethyl-5-(2,6-difluorophenyl)-2-[4′-(trifluoromethoxy)-1,1′-biphenyl-4-yl]-3,4-dihydro-2H-pyrrole]
5.77 | Fc1cccc(F)c1C1=NC(c2ccc(-c3ccc(OC(F)(F)F)cc3)cc2)CC1=Cc1ccccc1 (stereo not drawn) [Example 16, 4-benzylidene-5-(2,6-difluorophenyl)-2-[4′-(trifluoromethoxy)-1,1′-biphenyl-4-yl]-3,4-dihydro-2H-pyrrole]

Same assay, conditions: reversed-phase HPLC column (C 18), pH 2.3, first HPLC peak of the mixture of diastereomers; reversed-phase C 18, 43° C., pH 2.3; read-out: log P1

chromatographic logP | Compound
2.32 | O=S(=O)(O)C1CC(c2ccc(-c3ccc(OC(F)(F)F)cc3)cc2)N=C1c1c(F)cccc1F (stereo not drawn) [Example 13, 5-(2,6-difluorophenyl)-2-[4′-(trifluoromethoxy)-1,1′-biphenyl-4-yl]-3,4-dihydro-2H-pyrrole-4-sulphonic acid]
1.4 | O=S(=O)(O)C1CC(c2ccc(Br)cc2)N=C1c1c(F)cccc1F (stereo not drawn) [Example 12, 2-(4-bromophenyl)-5-(2,6-difluorophenyl)-3,4-dihydro-2H-pyrrole-4-sulphonic acid]
4.39 | O=S(=O)(Oc1ccc([C@H]2CC(Br)C(c3c(F)cccc3F)=N2)cc1)C(F)(F)F (stereo partly drawn) [Example 8, 4-[(2R)-4-bromo-5-(2,6-difluorophenyl)-3,4-dihydro-2-pyrrol-2-yl]phenyl-trifluoromethanesulphonate]
4.34 | O=S(=O)(Oc1ccc([C@H]2CC(Cl)C(c3c(F)cccc3F)=N2)cc1)C(F)(F)F (stereo partly drawn) [Example 3, 4-[(2R)-4-chloro-5-(2,6-difluorophenyl)-3,4-dihydro-2H-pyrrol-2-yl]phenyl-trifluoromethanesulphonate]
5.31 | Fc1cccc(F)c1C1=NC(c2ccc(-c3ccc(OC(F)(F)F)cc3)cc2)CC1Cl (stereo not drawn) [Example 1, 4-chloro-5-(2,6-difluorophenyl)-2-[4′-(trifluoromethoxy)-1,1′-biphenyl-4-yl]-3,4-dihydro-2H-pyrrole]
5.31 | Fc1cccc(F)c1C1=N[C@@H](c2ccc(-c3ccc(OC(F)(F)F)cc3)cc2)CC1Cl (stereo partly drawn) [Example 2, (2R)-4-chloro-5-(2,6-difluorophenyl)-2-[4′-(trifluoromethoxy)-1,1′-biphenyl-4-yl]-3,4-dihydro-2H-pyrrole]

Same assay, conditions: reversed-phase HPLC column (C 18), pH 2.3, second HPLC peak of the mixture of diastereomers; reversed-phase C 18, 43° C., pH 2.3; read-out: log P2

chromatographic logP | Compound
2.46 | O=S(=O)(O)C1CC(c2ccc(-c3ccc(OC(F)(F)F)cc3)cc2)N=C1c1c(F)cccc1F (stereo not drawn) [Example 13, 5-(2,6-difluorophenyl)-2-[4′-(trifluoromethoxy)-1,1′-biphenyl-4-yl]-3,4-dihydro-2H-pyrrole-4-sulphonic acid]
1.6 | O=S(=O)(O)C1CC(c2ccc(Br)cc2)N=C1c1c(F)cccc1F (stereo not drawn) [Example 12, 2-(4-bromophenyl)-5-(2,6-difluorophenyl)-3,4-dihydro-2H-pyrrole-4-sulphonic acid]
4.49 | O=S(=O)(Oc1ccc([C@H]2CC(Br)C(c3c(F)cccc3F)=N2)cc1)C(F)(F)F (stereo partly drawn) [Example 8, 4-[(2R)-4-bromo-5-(2,6-difluorophenyl)-3,4-dihydro-2-pyrrol-2-yl]phenyl-trifluoromethanesulphonate]

Same assay, conditions: reversed-phase HPLC column (C 18); HPLC, reversed-phase column (C 18), 43° C., pH 2.3, 0.1% aqueous phosphoric acid/acetonitrile; read-out: log P

Compound | chromatographic logP
CC(C)(C)OC(=O)N1C(=O)C(C)(C)CC1c1ccc(-c2ccc(OC(F)(F)F)cc2)cc1 (stereo not drawn) [tert-butyl 3,3-dimethyl-2-oxo-5-[4′-(trifluoromethoxy)-1,1′-biphenyl-4-yl]-1-pyrrolidinecarboxylate] | 4.99

Same assay, conditions: second HPLC peak of the mixture of diastereomers; reversed-phase C 18, 43° C., pH 2.3

log P2 | Compound
4.40 | O=S(=O)(Oc1ccc([C@H]2CC(Cl)C(c3c(F)cccc3F)=N2)cc1)C(F)(F)F (stereo partly drawn) [Example 3, 4-[(2R)-4-chloro-5-(2,6-difluorophenyl)-3,4-dihydro-2H-pyrrol-2-yl]phenyl-trifluoromethanesulphonate]
5.39 | Fc1cccc(F)c1C1=NC(c2ccc(-c3ccc(OC(F)(F)F)cc3)cc2)CC1Cl (stereo not drawn) [Example 1, 4-chloro-5-(2,6-difluorophenyl)-2-[4′-(trifluoromethoxy)-1,1′-biphenyl-4-yl]-3,4-dihydro-2H-pyrrole]
5.39 | Fc1cccc(F)c1C1=N[C@@H](c2ccc(-c3ccc(OC(F)(F)F)cc3)cc2)CC1Cl (stereo partly drawn) [Example 2, (2R)-4-chloro-5-(2,6-difluorophenyl)-2-[4′-(trifluoromethoxy)-1,1′-biphenyl-4-yl]-3,4-dihydro-2H-pyrrole]

Test system: larvae of the mustard beetle (Phaedon cochleariae)
Assay: Phaedon larvae test
Format: in vivo
Settings: 168 h, cabbage leaves dipped, after 7 d, read-out: Kill rate in % after 7 d
Experimental: [table] To produce a suitable preparation of active compound, 1 part by weight of active compound is mixed with the stated amounts of solvent and emulsifier, and the concentrate is diluted with emulsifier-containing water to the desired concentration. Cabbage leaves (Brassica oleracea) are treated by being dipped into the preparation of active compound of the desired concentration and are populated with larvae of the mustard beetle (Phaedon cochleariae) whilst the leaves are still moist. After the desired period of time, the kill in % is […]. 100% means that all beetle larvae have been killed; 0% means that none of the beetle larvae have been killed.

Compound | pest or weed control at 1000 ppm [%]
O=S(=O)(Oc1ccc([C@H]2CC(Cl)(Cl)C(c3c(F)cccc3F)=N2)cc1)C(F)(F)F [drawing 62] | 100
Fc1cccc(F)c1C1=N[C@@H](c2ccc(-c3ccc(OC(F)(F)F)cc3)cc2)CC1(Cl)Cl [drawing 58] | 100
O=S(=O)(Oc1ccc(-c2ccc([C@H]3C[C@H](Cl)C(c4c(F)cccc4F)=N3)cc2)cc1)C(F)(F)F [drawing 64] | 100
Fc1cccc(F)c1C1=NC(c2ccc(-c3ccc(OC(F)(F)F)cc3)cc2)CC1(Cl)Cl (stereo not drawn) [drawing 56] | 100
O=S(=O)(Oc1ccc([C@H]2CC(Br)C(c3c(F)cccc3F)=N2)cc1)C(F)(F)F (stereo partly drawn) [drawing 63] | 100
Fc1cccc(F)c1C1=N[C@@H](c2ccc(-c3ccc(OC(F)(F)F)cc3)cc2)CC1(Br)Br [drawing 59] | 100
Fc1cccc(F)c1C1=N[C@@H](c2ccc(-c3ccc(OC(F)(F)F)cc3)cc2)C/C1=C\c1ccc(Br)cc1 [drawing 60] | 100
O=S(=O)(Oc1ccc([C@H]2CC(Cl)C(c3c(F)cccc3F)=N2)cc1)C(F)(F)F (stereo partly drawn) [drawing 61] | 100
Fc1cccc(F)c1C1=NC(c2ccc(-c3ccc(OC(F)(F)F)cc3)cc2)CC1Cl (stereo not drawn) [drawing 57] | 100

Test system: greenhouse red spider mite (Tetranychus urticae)
Assay: Tetranychus test (OP-resistant/dip treatment)
Format: in vivo
Settings: 100 ppm, bean plants dipped, OP-resistant
Experimental: [table] To produce a suitable preparation of active compound, 1 part by weight of active compound is mixed with the stated amounts of solvent and emulsifier, and the concentrate is diluted with emulsifier-containing water to the desired concentration. Bean plants (Phaseolus vulgaris) which are heavily infested by all stages of the greenhouse red spider mite (Tetranychus urticae) are dipped into a preparation of active compound of the desired concentration. After the desired period of time, the effect in % is determined. 100% means that all spider mites have been killed; 0% means that none of the spider mites have been killed.

Compound | Kill rate in % after 7 d [%]
Fc1cccc(F)c1C1=N[C@@H](c2ccc(-c3ccc(OC(F)(F)F)cc3)cc2)CC1(Br)Br [drawing 79] | 98
Fc1cccc(F)c1C1=N[C@@H](c2ccc(-c3ccc(OC(F)(F)F)cc3)cc2)CC1(Cl)Cl [drawing 78] | 98
O=S(=O)(Oc1ccc(-c2ccc([C@H]3C[C@H](Cl)C(c4c(F)cccc4F)=N3)cc2)cc1)C(F)(F)F [drawing 83] | 98
Fc1cccc(F)c1C1=NC(c2ccc(-c3ccc(OC(F)(F)F)cc3)cc2)CC1(Cl)Cl (stereo not drawn) [drawing 76] | 98
O=S(=O)(Oc1ccc([C@H]2CC(Cl)(Cl)C(c3c(F)cccc3F)=N2)cc1)C(F)(F)F [drawing 82] | 95
Fc1cccc(F)c1C1=NC(c2ccc(-c3ccc(OC(F)(F)F)cc3)cc2)CC1Cl (stereo not drawn) [drawing 77] | 98
O=S(=O)(Oc1ccc([C@H]2CC(Br)C(c3c(F)cccc3F)=N2)cc1)C(F)(F)F (stereo partly drawn) [drawing 81] | 98
Fc1cccc(F)c1C1=N[C@@H](c2ccc(-c3ccc(OC(F)(F)F)cc3)cc2)C/C1=C\c1ccc(Br)cc1 [drawing 80] | 98
